This is an account of results in article PMC7801115, “Preclinical in vitro screening of newly synthesised amidino substituted benzimidazoles and benzothiazoles” (Journal of Enzyme Inhibition and Medicinal Chemistry, 2021).

Molecules are shown by their SMILES.

One series is described as follows: Kinetic solubility. Format: physicochemical. To be noted: aqueous buffer, kinetic from dmso stock, phosphate buffer 50 mM, pH 7.4, 1% DMSO, 37 °C. As to the method: Test compounds and assay controls (sulfaphenazole and α-naphtoflavone) were serially diluted in DMSO by factor 3.3x, 3x, 3.3x and 3x, resulting in a total of 5 different concentrations. Phosphate buffer (50 mM, pH 7.4) was spiked with diluted test compounds and controls with final concentration range in the assay as follows: 100, 30, 10, 3 and 1 µM (1% DMSO). Plate was then incubated by gentle shaking (200–300 rpm) for 1 h and 45 min at 37 °C. After additional15 min on room temperature (without shaking), plate absorbance at 620 nm was measured with microplate reader Tecan, Infinite F500 (total incubation time = 2 h).

The nature of series [1]: Metabolic stability in liver microsomes. Format: in vitro ADME. To be noted: 60 min. The protocol:
Tested compounds (final concentration of 1 µM, 0.1% DMSO), as well as testosterone and propranolol as positive controls and caffeine as negative control were incubated in phosphate buffer (50 mM, pH 7.4) for 60 min at 37 °C with liver microsomes (human and mouse) in the absence and presence of the NADPH cofactor. The NADPH generating system was prepared in phosphate buffer and consisted of nicotinamide adenine dinucleotide phosphate (NADP, 0.38 mM), glucose-6-phosphate (1.49 mM), glucose-6-phosphate dehydrogenase (1.5 U) and magnesium chloride (0.1 mM). Aliquots were taken at different time points (0, 10, 20, 30, 45 and 60 min) and reaction was terminated by addition of a MeCN/MeOH (2:1) mixture, containing diclofenac as internal standard. Samples were then centrifuged (at 4500 rpm, at 4 °C, for 30 min) and resulting supernatants were subjected to LC-MS/MS analysis. The in vitro half life (t½) was determined from the slope of the linear regression of ln % parent compound remaining versus incubation time. In vitro intrinsic clearance, expressed as µl/min/mg liver, was determined from in vitro half life (t½) and normalised for the protein concentration in the incubation mixture. Predicted in vivo hepatic clearance was determined from in vitro intrinsic clearance assuming 52.5 mg of protein/g of liver and using constant values for liver weight/body weight [g/kg] (25.7 for human, 87.5 for mouse) and liver blood flow (LBF) [ml/min/kg] (21 for human and 131 for mouse).
All ADME samples were analysed on a Sciex API 4000 or Sciex API4500 Triple Quadrupole Mass Spectrometer (Sciex, Framingham, MA, USA) coupled to a UHPLC System (Shimadzu Nexera X2; Shimadzu, Kyoto, Japan). Samples were injected onto an UPLC column (HALO2 C18, 2.1 × 20 mm, 2 µm or Phenomenex Luna Omega Polar C18, 30 × 2.1 mm, 1.6 µm) and eluted with a gradient at temperature of 50 °C. The mobile phase was composed of acetonitrile (with 0.1% formic acid) and 0.1% formic acid in deionised water. A total run time was 1 or 1.5 min, with the flow rate of 0.7 ml/min (under gradient conditions). A positive ion mode with turbo spray, an ion source temperature of 500 °C and a dwell time of 150 ms were utilised for mass spectrometric detection. Multiple reaction monitoring (MRM) was used at the specific transitions for each compound/control tested: compound 5c: 361.9 → 304.9; compound 5d: 344.8 → 287.9; compound 5e: 349.8 → 292.9; compound 5 g: 350.8 → 293.9; compound 5 h: 344.0 → 286.9; compound 6a: 276.9 → 220.0; compound 5 b: 319.0 → 262.0; compound 6 b: 302.1 → 245.1; compound 6c: 344.9 → 288.0; compound 6d: 333.0 → 276.0; compound 6e: 316.1 → 259.0; compound 6f: 327.1 → 270.0; compound 6 g: 377.1 → 320.1; testosterone: 289.3→ 97.1; propranolol: 260.1 → 182.8; caffeine: 195.2 → 138.1; acebutolol: 337.2 → 116.2, nicardipine: 480.2 → 315.0; verapamil: 455.4 → 165.1; amprenavir: 506.2 → 245.4; diclofenac: 296.1 → 213.7 or 296.2 → 215.3; eucatropine: 292.2 → 109.1; benfluorex: 352.1 → 230.3, and warfarin: 309.2 → 163.2

The subject of series [2] is HCC827. Kind of series: BrdU proliferation assay, 3D cell culture. The format is cell-based. To be noted: Homo sapiens, HCC827, 3D cell culture, ±SD, N = 2. The protocol:
(§1) Cells were grown in 96 well Perfecta 3 D hanging drop plates 5000 cell/well for 4 days until spheres were formed (and checked under the microscope). After sphere formation cells were treated with compounds followed by 72 h incubation. Cell viability assay was performed according to the manufacturer’s instruction, using CellTiter GLO 3 D for 3 D cell culture (Promega); cell incubation was 5 min on the shaker followed by 25 min incubation in the dark. Plates were read using PE EnVision luminescence.
Proliferation assay was performed using Cell Proliferation ELISA, BrdU (Sigma, St. Louis, MO, USA). Briefly, 48 h hours after compound addition, 10 µM of BrdU was added to each well and incubated for following 24 h. After incubation, single cell suspension was made for 3 D cell culture in the new 96 well plate. Plates were centrifuged and supernatants were removed from each plate (for 2 D and 3 D cell culture) followed by 60 min incubation at 60° C. The rest of the proliferation assay was performed according to the manufacturer instructions.
(§2) Calculation of IC50 data, curves and QC analysis is made by using Excel tools and GraphPadPrism software (La Jolla, CA), v. […] QC criteria parameters (Z', S:B, R2, HillSlope) were checked for every IC50 curve.

For a further series, the system named is NCI-H358. Kind of series: Cell viability assay, 3D hanging drop cell culture (CellTiter GLO 3D). The format is cell-based. To be noted: Homo sapiens; NCI-H358, 3D hanging drop cell culture, 72 h; ±SD, N = 2; read-out: IC50 antitumor activity NCI-H358 3D. The protocol:
(§3) Compounds are diluted 1:3. 500 nL (for 2 D cell culture) or 400 nL (for 3 D cell culture) of compound were transferred from mother plate to test plate by using Mosquito (TTP labtech). DMSO percentage in test concentrations was 0.5 − 1.0%. Starting concentration of the test compounds and standard compound doxorubicin was 50 µM (2 D cell culture) or 100 µM (3 D cell culture).
as §1, §2

Series [3] concerns HCC827. Described as above. The format is cell-based. To be noted: Homo sapiens; HCC827, 3D hanging drop cell culture, 72 h; ±SD, N = 2; read-out: IC50 antitumor activity HCC827 3D. The protocol: as §3, §1, §2
Another series relates to A549. The series is described as above. The format is cell-based. To be noted: Homo sapiens; A549, 3D hanging drop cell culture, 72 h; ±SD, N = 2; read-out: IC50 antitumor activity A549 3D. As to the method: as §3, §1, §2

Usually solubility (kinetic) stands for the concentration staying in solution when a stock, usually in DMSO, is diluted into the medium. The term IC50 denotes the concentration needed to halve the response being measured. Consider `c1ccc2c(-c3nc4ccc(C5=NCCCN5)cc4[nH]3)c[nH]c2c1` [Compound 6e, 2-(1H-Indol-3-yl)-5(6)–(3,4,5,6-tetrahydropyrimidin-1-ium-2-yl)benzimidazole chloride], for which, in “Kinetic solubility”, the kinetic solubility at 2 h fell in the range of 10 to 30 µM. Moreover, in series [1], the “Microsomes (1 µM) Predicted in vivo hep CL, Human” value is below 30 %LBF. Also, the “Microsomes (1 µM) Predicted in vivo hep CL, Mouse” value in series [1] is listed as 78 %LBF. Also, the IC50 in the series on HCC827 [2], in the series with NCI-H358, in the series on HCC827 [3] and with A549 was above 100 µM throughout.

`c1ccc(-c2nc3cc(C4=NCCCN4)ccc3[nH]2)cc1` [Compound 6a, 2-Phenyl-5(6)–(3,4,5,6-tetrahydropyrimidin-1-ium-2-yl)benzimidazole chloride] displayed a solubility (kinetic) at 2 h in “Kinetic solubility” above 100 µM. The “Microsomes (1 µM) Predicted in vivo hep CL, Human” value in series [1] is reported as 56 %LBF. Besides, the “Microsomes (1 µM) Predicted in vivo hep CL, Mouse” value in series [1] was 41 %LBF. Moreover, the IC50 in the series on HCC827 [2] was determined as 12 ± 0.25 µM; in the series with NCI-H358 it was 17 ± 1.94 µM; in the series on HCC827 [3], 9 ± 3.05 µM; in the series on A549 it was 13 ± 1.46 µM.

With `Cl.c1ccc2sc(-c3nc4ccc(C5=NCCCN5)cc4s3)cc2c1` [Compound 5e, 2-(Benzo[b]thiophen-2-yl)-6–(3,4,5,6-tetrahydropyrimidin-1-ium-2-yl)benzothiazole chloride], in “Kinetic solubility”, the solubility (kinetic) at 2 h lay in the range of 30 to 100 µM. The “Microsomes (1 µM) Predicted in vivo hep CL, Human” value in series [1] is given as below 30 %LBF. Further, the IC50 with HCC827 [2] stood at 24 ± 7.63 µM; in the series on NCI-H358 it was 34 ± 0.16 µM; in the series on HCC827 [3], 22 ± 9.45 µM; in the series with A549, 23 ± 6.24 µM.

Regarding `Cl.c1ccc2sc(-c3nc4ccc(C5=NCCCN5)cc4s3)nc2c1` [Compound 5g, 2-(Benzothiazole-2-yl)-6–(3,4,5,6-tetrahydropyrimidin-1-ium-2-yl)benzothiazole chloride], the kinetic solubility at 2 h in “Kinetic solubility” is 30 to 100 µM. Further, in series [1], the “Microsomes (1 µM) Predicted in vivo hep CL, Human” value is reported as below 30 %LBF. Further, the “Microsomes (1 µM) Predicted in vivo hep CL, Mouse” value in series [1] is below 30 %LBF. The concentration for half-maximal inhibition (IC50) in the series with HCC827 [2] worked out at 17 ± 0.93 µM; with NCI-H358, 31 ± 0.05 µM; in the series with HCC827 [3], 17 ± 0.93 µM; in the series with A549, 15 ± 1.35 µM.

As to `c1ccc2c(c1)cc(-c1nc3cc(C4=NCCCN4)ccc3[nH]1)c1ccccc12` [Compound 6g, 2-(Phenanthrene-9-yl)-5(6)–(3,4,5,6-tetrahydropyrimidin-1-ium-2-yl)benzimidazole chloride], the solubility (kinetic) at 2 h in “Kinetic solubility” was 30 to 100 µM. The “Microsomes (1 µM) Predicted in vivo hep CL, Human” value in series [1] was below 30 %LBF. The IC50 with HCC827 [2], in the series with NCI-H358, in the series with HCC827 [3] and in the series with A549 was above 100 µM throughout.

Regarding `FC(F)(F)c1ccc(-c2nc3cc(C4=NCCCN4)ccc3[nH]2)cc1` [Compound 6c, 2–(4-Trifluoromethylphenyl)-5(6)–(3,4,5,6-tetrahydropyrimidin-1-ium-2-yl)benzimidazole chloride], the solubility (kinetic) at 2 h in “Kinetic solubility” was above 100 µM. The “Microsomes (1 µM) Predicted in vivo hep CL, Human” value in series [1] was below 30 %LBF. Moreover, in series [1], the “Microsomes (1 µM) Predicted in vivo hep CL, Mouse” value was below 30 %LBF. The IC50 in the series on HCC827 [2], in the series on NCI-H358, in the series with HCC827 [3] and in the series with A549 was above 100 µM in each case.

For `c1ccc2sc(-c3nc4cc(C5=NCCCN5)ccc4[nH]3)cc2c1` [Compound 6d, 2-(Benzo[b]thiophen-2-yl)-5(6)–(3,4,5,6-tetrahydropyrimidin-1-ium-2-yl)benzimidazole chloride], the kinetic solubility at 2 h in “Kinetic solubility” fell in the range of 10 to 30 µM. Further, in series [1], the “Microsomes (1 µM) Predicted in vivo hep CL, Human” value is recorded as below 30 %LBF. Also, in series [1], the “Microsomes (1 µM) Predicted in vivo hep CL, Mouse” value is 71 %LBF. The IC50 in the series with HCC827 [2], in the series with NCI-H358, in the series with HCC827 [3] and in the series on A549 was above 100 µM in each case.

In the series “Kinetic solubility”, `N#Cc1ccc(-c2nc3cc(C4=NCCCN4)ccc3[nH]2)cc1` [Compound 6b, 2–(4-Cyanophenyl)-5(6)–(3,4,5,6-tetrahydropyrimidin-1-ium-2-yl)benzimidazole chloride] displayed a kinetic solubility at 2 h above 100 µM. In addition, the “Microsomes (1 µM) Predicted in vivo hep CL, Human” value in series [1] is recorded as below 30 %LBF. Moreover, the “Microsomes (1 µM) Predicted in vivo hep CL, Mouse” value in series [1] is listed as below 30 %LBF. For the same molecule, the 50% inhibitory concentration (IC50) with HCC827 [2], with NCI-H358, in the series on HCC827 [3] and with A549 was above 100 µM throughout.

Regarding `Cl.c1ccc2cc(-c3nc4ccc(C5=NCCCN5)cc4s3)ccc2c1` [Compound 5h, 2-(Naphthalene-2-yl)-6–(3,4,5,6-tetrahydropyrimidin-1-ium-2-yl)benzothiazole chloride], in the series “Kinetic solubility”, the kinetic solubility at 2 h is 10 to 30 µM. Besides, the “Microsomes (1 µM) Predicted in vivo hep CL, Human” value in series [1] is reported as below 30 %LBF. Also, the “Microsomes (1 µM) Predicted in vivo hep CL, Mouse” value in series [1] was below 30 %LBF. The IC50 amounted to 12 ± 0.26 µM with HCC827 [2], 31 ± 0.33 µM with NCI-H358, 12 ± 0.26 µM in the series on HCC827 [3] and 14 ± 0.38 µM with A549.

`Cl.c1ccc2nc(-c3nc4ccc(C5=NCCCN5)cc4s3)ccc2c1` [Compound 5d, 2-(Quinoline-2-yl)-6–(3,4,5,6-tetrahydropyrimidin-1-ium-2-yl)benzothiazole chloride] returned a solubility (kinetic) at 2 h in the series “Kinetic solubility” of 30 to 100 µM. The “Microsomes (1 µM) Predicted in vivo hep CL, Human” value in series [1] was below 30 %LBF. In addition, the “Microsomes (1 µM) Predicted in vivo hep CL, Mouse” value in series [1] is listed as below 30 %LBF. Moreover, the concentration for half-maximal inhibition (IC50) with HCC827 [2] was 32 ± 11.7 µM; in the series with NCI-H358 it was 40 ± 4.89 µM; in the series on HCC827 [3], above 100 µM; in the series on A549 it was 16 ± 1.3 µM.
